For this test, the system named is Mycobacterium avium. As to the kind of experiment: microbe, parasite or virus in culture.

Structures are written as SMILES. Some results are limits rather than exact numbers.

Take `COc1cc(Cc2cnc(N)nc2N)cc(OC)c1OC` [TRIMETHOPRIM]: the MIC is > 64 mg/L.

Source of the values: ChEMBL document CHEMBL1149100, “New 2,4-diamino-5-(2',5'-substituted benzyl)pyrimidines as potential drugs against opportunistic infections of AIDS and other immune disorders. Synthesis and species-dependent antifolate activity” (J Med Chem, 2004).
